# Data as given in EP4410314A1, “COMBINATION THERAPY COMPRISING ANTI-CD22 ANTIBODY-DRUG CONJUGATE AND IRAK1 INHIBITOR” (ADC Therapeutics SA, priority 2023, dated 2024).
# What was measured:
# KARPAS-299 [1] = test: In vitro cytotoxicity, KARPAS-299; assay type: cell-based, human; conditions: KARPAS-299 (ALCL), CD22-negative; mean ± SEM
# PMBCL = test: In vitro cytotoxic activity, lymphoma cell line panel: PMBCL; assay type: cell-based, human; conditions: 1 cell line, read-out: Median IC50
# SUP-T1 = test: In vitro cytotoxicity, SUP-T1; assay type: cell-based, human; conditions: SUP-T1 (T-LL), CD22-negative; mean ± SEM
# MZL = test: In vitro cytotoxic activity, lymphoma cell line panel: MZL; assay type: cell-based, human; conditions: 6 cell lines, read-out: Median IC50
# Ramos cells = test: DNA interstrand crosslinks, single cell gel electrophoresis (Comet) assay, Ramos; assay type: cell-based, human; conditions: 2-hour exposure
# Protocol: (§1) Quantification of in vitro DNA interstrand crosslinks (ICLs) was performed using the single cell gel electrophoresis (Comet) assay.
# (§2) DNA ICLs were measured using a modification of the single-cell gel electrophoresis (Comet) assay, and crosslinking was expressed as the percentage decrease in Olive tail moment (OTM) versus control irradiated cells. […] Immediately after the drug incubation period, a low level of ICLs (3%) was observed, which increased over time to near peak levels (≈50%) at 12 hours and persisted up to 48 hours. […] In this cell line, SG3199 produced a high level of ICL (≈50%), similar to that observed in the Ramos cell line.
# [2] = tested on: Ramos, TMD8, and SU-DHL-4 cell lines; test: In vitro cytotoxicity following pretreatment with chidamide; assay type: cell-based; conditions: pretreatment with chidamide (0.25 or 0.5 µM) for 7 days, then ADC for 5 days
# Protocol: Chidamide (Selleckchem) was dissolved in dimethyl sulfoxide (DMSO) according to the manufacturer's instructions. Cells were treated with chidamide (0.25 or 0.5 µM) for 7 days at 37°C in a 5% carbon dioxide-gassed, humidified incubator. On day 3, cells were centrifuged, and fresh medium containing the corresponding concentrations of chidamide was added. The control group was treated with equal volumes of DMSO.
# Cell viability was measured with the CellTiter 96 Aqueous One Solution Cell Proliferation Assay (Promega). Data were normalized to untreated control cells. The IC50 values were determined using GraphPad software (GraphPad). The mean and standard errors of 3 independent IC50 values were determined.
# ALCL = test: In vitro cytotoxic activity, lymphoma cell line panel: ALCL; assay type: cell-based, human; conditions: 5 cell lines, read-out: Median IC50
# ABC-DLBCL = test: In vitro cytotoxic activity, lymphoma cell line panel: ABC-DLBCL; assay type: cell-based, human; conditions: 6 cell lines, read-out: Median IC50
# CLL = test: In vitro cytotoxic activity, lymphoma cell line panel: CLL; assay type: cell-based, human; conditions: 2 cell lines, read-out: Median IC50
# GRANTA-519 = test: In vitro cytotoxicity, GRANTA-519; assay type: cell-based, human; conditions: GRANTA-519 (MCL), CD22-positive; mean ± SEM
# T-cell lymphomas = test: In vitro cytotoxic activity, lymphoma cell line panel: T-cell lymphomas; assay type: cell-based, human; conditions: 9 cell lines, read-out: Median IC50
# [3] = tested on: CD22-negative KARPAS-299 cells; test: Bystander killing by conditioned medium transfer; assay type: cell-based, human; conditions: for percentage survival of KARPAS-299 cells: 96 hours incubation
# Protocol: The ADCT-602-conditioned medium elicited a bystander effect after 1 day of pretreatment, as shown by a decrease in the percentage survival in the conditioned medium-treated KARPAS-299 cells, compared with the nonconditioned medium (97% to 78%, P = .001). The bystander effect increased after 2 to 3 days of preincubation in Ramos cells, as shown by a further decrease in the percentage of cell survival compared with the nonconditioned medium (66% and 62%, P < .0001).
# SEM cells = test: In vitro cytotoxicity, SEM; assay type: cell-based, human; conditions: SEM (B-ALL), CD22-positive; mean ± SEM
# WSU-DLCL2 xenograft = test: SC WSU-DLCL2 xenograft model; assay type: in vivo, mice
# Excerpt: (§3) Ramos, WSU-DLCL2, and KARPAS-299 xenografts were established in 8- to 10-week-old female Fox Chase mice with severe combined immunodeficiency (Charles River Laboratories) by implanting 10^7 cells subcutaneously (SC) into their flanks. When group mean tumor volumes reached approximately 116 to 132 mm^3, mice were randomly allocated into groups to receive the test agent or vehicle. Each animal was euthanized when its tumor reached the end point volume or at the study end. The time to end point (TTE) for analysis was calculated for each mouse by the following equation: TTE (days) = ([log10(end point volume−intercept^(*)]/slope^(*)) [formula] where the * indicates the slope of the line obtained by linear regression of a log-transformed tumor growth data set.
# (§4) The log-rank test was used to analyze the significance of differences in TTE between the 2 groups. For the disseminated xenografts model, 10^7 REH cells were inoculated intravenously (IV) into 5- to 8-week-old female NOG mice (Taconic Biosciences). Test compounds were administered IV 4 days after tumor cell inoculation. Individual mice were euthanized, and an autopsy was performed when hind leg paralysis (a sign of leukemia development) occurred and/or the body weight decreased ≥20%. The study was terminated on day 62. The log-rank test was used to determine the significance of the differences in overall survival.
# B-cell lymphomas = conditions: read-out: Median IC50, 48 cell lines
# DO HH-2 = test: In vitro cytotoxicity, DO HH-2; assay type: cell-based, human; conditions: DO HH-2 (FL), CD22-positive; mean ± SEM
# CTCL = test: In vitro cytotoxic activity, lymphoma cell line panel: CTCL; assay type: cell-based, human; conditions: 3 cell lines, read-out: Median IC50
# Daudi = test: In vitro cytotoxicity, Daudi; assay type: cell-based, human; conditions: Daudi (BL), CD22-positive; mean ± SEM
# MEC-2 = test: In vitro cytotoxicity, MEC-2; assay type: cell-based, human; conditions: MEC-2 (CLL), CD22-positive; mean ± SEM
# [4] = tested on: CD22-expressing Ramos cells; test: Cell surface binding, internalization and LAMP-1 colocalization; assay type: cell-based, human
# Ramos xenograft = test: SC Ramos xenograft; assay type: in vivo, mice
# Excerpt: as §3, §4
# NALM-6 = test: In vitro cytotoxicity, NALM-6; assay type: cell-based, human; conditions: NALM-6 (B-ALL), CD22-positive; mean ± SEM
# Ramos = test: In vitro cytotoxicity, Ramos; assay type: cell-based, human; conditions: Ramos (BL), CD22-positive; mean ± SEM
# NAMALWA = test: In vitro cytotoxicity, NAMALWA; assay type: cell-based, human; conditions: NAMALWA (BL), CD22-positive; mean ± SEM
# KM-H2 = test: In vitro cytotoxicity, KM-H2; assay type: cell-based, human; conditions: KM-H2 (HL), CD22-negative; mean ± SEM
# KARPAS-299 xenograft = test: SC KARPAS-299 xenograft model (CD22-negative); assay type: in vivo, mice; conditions: single 1 mg/kg dose; end of the study (day 29)
# Excerpt: as §3, §4
# HL = test: In vitro cytotoxic activity, lymphoma cell line panel: HL; assay type: cell-based, human; conditions: 3 cell lines, read-out: Median IC50
# REH cells = test: Disseminated B-ALL-derived xenograft model (REH); assay type: in vivo, mice
# Protocol: as §4
# PTCL-NOS = test: In vitro cytotoxic activity, lymphoma cell line panel: PTCL-NOS; assay type: cell-based, human; conditions: 1 cell line, read-out: Median IC50
# REH = test: In vitro cytotoxicity, REH; assay type: cell-based, human; conditions: REH (B-ALL), CD22-positive; mean ± SEM
# MCL = test: In vitro cytotoxic activity, lymphoma cell line panel: MCL; assay type: cell-based, human; conditions: 10 cell lines, read-out: Median IC50
# B cells = test: B-cell depletion from circulation; assay type: in vivo; conditions: cynomolgus monkeys, after one ADCT-602 dose
# GCB-DLBCL = test: In vitro cytotoxic activity, lymphoma cell line panel: GCB-DLBCL; assay type: cell-based, human; conditions: 20 cell lines, read-out: Median IC50
# KARPAS-299 [5] = test: DNA interstrand crosslinks, single cell gel electrophoresis (Comet) assay, KARPAS-299; assay type: cell-based, human; conditions: KARPAS-299 (CD22-negative), over 48 hours following a 2-hour treatment
# Protocol: as §1, §2
# [6] = single dose 3 mg/kg, end of the study (day 59)
# [7] = single dose 1 mg/kg, end of the study (day 60)
substance,measurement,setting,value
"ADCT-602: novel ADC targeting CD22 that consists of humanized monoclonal antibody hLL2-C220, sitespecifically conjugated to the pyrrolobenzodiazepine (PBD) dimer-based payload tesirine",IC50,KARPAS-299 [1],51.7 ± 3.86 nM
same,IC50,PMBCL,0.035 nM
same,IC50,SUP-T1,9.34 ± 1.02 nM
same,IC50,MZL,0.0625 nM
same,"DNA ICLs, percentage decrease in Olive tail moment (OTM) versus control irradiated cells",Ramos cells; immediately after the drug incubation period,3%
same,"DNA ICLs, percentage decrease in Olive tail moment (OTM) versus control irradiated cells",Ramos cells; peak / near peak level at 12 hours,≈ 50%
same,improvement of ADCT-602 IC50 compared with cells pretreated with DMSO,[2],up to 2.5 fold
same,IC50,ALCL,2.85 nM
same,IC50,ABC-DLBCL,0.395 nM
same,IC50,CLL,0.23 nM
same,IC50,GRANTA-519,0.02 ± 0.0005 nM
same,IC50,T-cell lymphomas,1.85 nM
same,change in percentage of cell survival compared with the nonconditioned medium,"[3]; conditioned medium from ADCT-602-treated, CD22-negative NCI-N87 cells",no significant change
same,percentage survival of KARPAS-299 cells,[3]; conditioned medium from Ramos cells treated with ADCT-602 for 1 day,78%
same,percentage survival of KARPAS-299 cells,[3]; conditioned medium from Ramos cells treated with ADCT-602 for 2 days,66%
same,percentage survival of KARPAS-299 cells,[3]; conditioned medium from Ramos cells treated with ADCT-602 for 3 days,62%
same,percentage survival of KARPAS-299 cells,"[3]; nonconditioned medium, comparator for 1 day pretreatment",97%
same,IC50,SEM cells,0.52 ± 0.08 nM
same,CRs,WSU-DLCL2 xenograft; [6],7/10
same,partial responders,WSU-DLCL2 xenograft; [6],3/10
same,tumor-free survivors,WSU-DLCL2 xenograft; [6],2/10
same,antitumor activity compared with the vehicle and the isotype control ADC,WSU-DLCL2 xenograft; single dose at 1 and 3 mg/kg,dose-dependent antitumor activity
same,IC50,B-cell lymphomas,0.2 nM
same,IC50,DO HH-2,0.06 ± 0.009 nM
same,IC50,CTCL,1.75 nM
same,IC50,Daudi,0.07 ± 0.021 nM
same,IC50,MEC-2,0.18 ± 0.05 nM
same,internalization and trafficking to lysosomes,"[4]; 37°C, 1- and 2-hour time points",cellular internalization and colocalization of ADCT-602 with LAMP-1
same,residual ADC staining,[4]; 24 hours,no residual ADC staining
same,cell surface (membrane) binding,[4]; T 0 hours,prominent cell surface binding
same,CRs,Ramos xenograft; [7],10/10
same,tumor-free survivors,Ramos xenograft; [7],9/10
same,antitumor activity compared with the vehicle and the isotype control ADC,Ramos xenograft; single dose at 0.3 and 1 mg/kg,specific and dose-dependent antitumor activity
same,IC50,NALM-6,0.11 ± 0.018 nM
same,IC50,Ramos,0.06 ± 0.021 nM
same,IC50,NAMALWA,2.27 ± 0.052 nM
same,IC50,KM-H2,11.4 ± 1.11 nM
same,antitumor activity compared with the vehicle group,KARPAS-299 xenograft,no significant antitumor activity
same,IC50,HL,4.5 nM
same,"survival time, single dose versus equivalent fractionated dose","REH cells; single 1.3 mg/kg versus 0.45 mg/kg, every 4 days, for 3 times [Q4D×3]",comparable survival time
same,survival compared with the vehicle and the isotype control ADC,REH cells; single dose at 0.45 mg/kg and 1.3 mg/kg IV,dose-dependent extension of survival
same,IC50,PTCL-NOS,0.7 nM
same,IC50,REH,0.05 ± 0.006 nM
same,IC50,MCL,0.375 nM
same,depletion of B cells from circulation,B cells,efficiently depleted
same,IC50,GCB-DLBCL,0.1 nM
same,"DNA ICLs, percentage decrease in Olive tail moment (OTM) versus control irradiated cells",KARPAS-299 [5],≈ 15%
